How the values were obtained:
[1] = system: ob-ZSF1 rats; assay: Example 5: preclinical study of hypotensive synergy, mean arterial pressure; type: in vivo, rat
Source text: In the example, a preclinical animal model is used to evaluate whether atrasentan and an ARB cause a synergistic hypotensive effect.

[2] = Example 6: modeling data on edema risk based on a Phase 2A study (NCT00920764); parameters: species or system human
Source text: The graph was made by overlaying receptor occupancy data. (See also Table 20, below.)

In the case of `CCCCN(CCCC)C(=O)CN1C[C@H](c2ccc3c(c2)OCO3)[C@@H](C(=O)O)[C@@H]1c1ccc(OC)cc1` [Atrasentan, (2R,3R,4S)-4-(1,3-benzodioxol-5-yl)-1-[2-(dibutylamino)-2-oxoethyl]-2-(4-methoxyphenyl)pyrrolidine-3-carboxylic acid], the “decrease in MAP” value ([1]; 1.5 mg/kg/day combined with losartan (10 mg/kg/day)) is reported as “approximately the same as the decrease in MAP when losartan was administered alone”, the “mean arterial pressure (MAP)” value ([1]; alone at 1.5 mg/kg/day or 5 mg/kg/day) is reported as “did not significantly affect mean arterial pressure” and the Risk of edema ([2]; Dose 0.25 mg) is reported as 15%. It also gave a Risk of edema ([2]; Dose 0.75 mg) of 22% and a Risk of edema ([2]; Dose 1.75 mg) of 43%.

— patent US9855245B2, “Methods for improving lipid profiles using atrasentan” (AbbVie Inc., priority 2013, dated 2018)
